This passage reports IC50 results from patent US20260138980A1, “SPIRO COMPOUNDS AND USES THEREOF IN THE FIELD OF MEDICINE” (Kind Pharmaceutical, priority 2023, published 2026).

The subject of the experiment is EPO. Description: Determination of EPO inhibition rate by compounds using Hep3B cells (EPO ELISA of culture supernatant). The class given is cell-based. The conditions noted are these: Homo sapiens, EPO induced with 30 μM (6′-hydroxy-3′-(4-methoxyphenyl)-8′-oxo-8′H-spiro[cyclopentane-1,5′-indolizine]-7′-carbonyl)glycine or its analogues, test compound 48 hours. How it is done:
Hep3B cells (from the Cell Bank of the Chinese Academy of Sciences, TCHu106) were seeded in a plate at a density of 5×10^4/mL and incubated overnight at 37° C. in a 5% CO2 incubator (Thermo Scientific BB150). The next day, the culture medium was replaced with medium containing 0.5% FBS (VivaCell C04001-500) to starve the cells for 6 hours. Subsequently, a DMSO solution of (6′-hydroxy-3′-(4-methoxyphenyl)-8′-oxo-8′H-spiro[cyclopentane-1,5′-indolizine]-7′-carbonyl)glycine or its analogues was added to achieve a final concentration of 30 μM. The plate was returned to the 37° C., 5% CO2 incubator for an additional 24 hours. Then, a DMSO solution of the test compound was added to achieve final concentrations of 30000 nM, 7500 nM, 1875 nM, 469 nM, 117 nM, 29 nM, 7.3 nM, 1.8 nM, 0.5 nM, and 0 nM (ten concentrations in total). Treatment continued for 48 hours. Cell culture supernatants were collected for EPO ELISA detection. The assay was performed according to the instructions of the ELISA kit (Sangon Biotech (Shanghai) Co., Ltd., D711311-0096). Absorbance was read at a wavelength of 450 nm using a microplate reader (Thermo Scientific Multiskan Go, 511191200).
The compound inhibition rate was calculated using the formula: Inhibition Rate=1-100%*(EPO value of the treated well−EPO value of the blank well)/(EPO value of the Control well−EPO value of the blank well). The IC50 value was calculated by linear fitting of the inhibition rates. Herein, the Control well refers to the cell-containing well treated for 72 hours with a DMSO solution containing 0 nM of the test compound but containing 30 μM of (6′-hydroxy-3′-(4-methoxyphenyl)-8′-oxo-8′H-spiro[cyclopentane-1,5′-indolizine]-7′-carbonyl)glycine or its analogues. The EPO level in this well was set as 100%. The blank well refers to a cell-containing well without the addition of any compound.
For orientation: In an ELISA, binding on a coated surface is turned into a signal by an enzyme label.
The compound `FC(F)OC1=CC(C(F)(F)F)=CN2CC3(CC=Cc4c3ccnc4Cl)N=C12` (racemic) [Example 2, 1′-Chloro-8-difluoromethoxy-6-trifluoromethyl-3H,6′H-spiro[imidazo[1,2-a]pyridine-2,5′-isoquinoline]] had an IC50 of 35.8 nM.
The compound `Fc1cccc2c1C=CC[C@]21CN2C=C(C(F)(F)F)C=C(OC(F)F)C2=N1` (single isomer, unassigned) [Example 16-B] showed an IC50 of 20.4 nM.
For the compound `Fc1cccc2c1C=CC[C@@]21CN2C=C(C(F)(F)F)C=C(OC(F)F)C2=N1` (single isomer, unassigned) [Example 16-A], the half-inhibitory concentration (IC50) turned out to be 6.45 nM.
To `Fc1cccc2c1C=CCC21CN2C=C(C(F)(F)F)C=C(OC(F)F)C2=N1` (racemic) [Example 16, 8-(Difluoromethoxy)-5′-fluoro-6-trifluoromethyl-2′H,3H-spiro[imidazo[1,2-a]pyridine-2,1′-naphthalene]] belongs 7.01 nM; to `Fc1c(Br)ccc2c1C=CCC21CN2C=C(C(F)(F)F)C=C(OC(F)F)C2=N1` (stereo not shown) [Example 12, 6′-Bromo-8-(difluoromethoxy)-5′-fluoro-6-(trifluoromethyl)-2′H,3H-spiro[imidazo[1,2-a]pyridine-2,1′-naphthalene]], 1.08 nM.
`FC1=CC[C@@]2(CN3C=C(C(F)(F)F)C=C(OC(F)F)C3=N2)c2ccnc(Cl)c21` (single isomer, unassigned) [Example 1-A] gave an IC50 of 17.9 nM. Against the preceding compound, the IC50 is about 17-fold higher.
To `FC1=Cc2c(ccnc2Cl)[C@]2(C1)CN1C=C(C(F)(F)F)C=C(OC(F)F)C1=N2` (single isomer, unassigned) [Example 10-A] belongs 2150 nM; to `FC(F)OC1=CC(C(F)(F)F)=CN2CC3(CC(Cl)=Cc4c3ccnc4Cl)N=C12` (stereo not shown) [Example 9, 1′,7′-Dichloro-8-difluoromethoxy-6-trifluoromethyl-3H,6′H-spiro[imidazo[1,2-a]pyridine-2,5′-isoquinoline]], 47.9 nM.
On to `FC1=CCC2(CN3C=C(C(F)(F)F)C=C(OC(F)F)C3=N2)c2cccc(F)c21` (racemic) [Example 15, 8-(Difluoromethoxy)-4′,5′-difluoro-6-(trifluoromethyl)-2′H,3H-spiro[imidazo[1,2-a]pyridine-2,1′-naphthalene]], for which the half-maximal inhibitory concentration (IC50) is 3.04 nM.
`FC1=Cc2c(ccnc2Cl)C2(C1)CN1C=C(C(F)(F)F)C=C(OC(F)F)C1=N2` (racemic) [Example 10, 1′-Chloro-8-difluoromethoxy-7′-fluoro-6-trifluoromethyl-3H,6′H-spiro[imidazo[1,2-a]pyridine-2,5′-isoquinoline]] showed a 50% inhibitory concentration (IC50) of 26.8 nM.
To `FC(F)OC1=CC(C(F)(F)F)=CN2CC3(CC=C(C(F)(F)F)c4c3ccnc4Cl)N=C12` (stereo not shown) [Example 8, 1′-Chloro-8-difluoromethoxy-6,8′-bis(trifluoromethyl)-3H,6′H-spiro[imidazo[1,2-a]pyridine-2,5′-isoquinoline]] belongs 148 nM; to `FC(F)OC1=CC(C(F)(F)F)=CN2CC3(CC=Cc4cnccc43)N=C12` (stereo not shown) [Example 20, 8-Difluoromethoxy-6-trifluoromethyl-3H,6′H-spiro[imidazo[1,2-a]pyridine-2,5′-isoquinoline]], 813 nM.
`Fc1cccc2c1C(I)=CCC21CN2C=C(C(F)(F)F)C=C(OC(F)F)C2=N1` (stereo not shown) [Example 19, 8-Difluoromethoxy-5′-fluoro-4′-iodo-6-trifluoromethyl-2′H,3H-spiro[imidazo[1,2-a]pyridine-2,1′-naphthalene]] returned a half-inhibitory concentration (IC50) of 302 nM. Against the preceding compound, the IC50 is about 2.7-fold lower.
To `FC1=CC[C@]2(CN3C=C(C(F)(F)F)C=C(OC(F)F)C3=N2)c2cccc(F)c21` (single isomer, unassigned) [Example 15-B] belongs 109 nM; to `FC(F)OC1=CC(C(F)(F)F)=CN2C[C@]3(CC=Cc4c3ccnc4Cl)N=C12` (single isomer, unassigned) [Example 2-A], 365 nM.
Regarding `FC1=CCC2(CN3C=C(C(F)(F)F)C=C(OC(F)F)C3=N2)c2ccnc(Cl)c21` (racemic) [Example 1, 1′-Chloro-8-difluoromethoxy-8′-fluoro-6-trifluoromethyl-3H,6′H-spiro[imidazo[1,2-a]pyridine-2,5′-isoquinoline]], the IC50 turned out to be 29 nM. This IC50 is about 13-fold lower than that of the compound before.
The compound `FC1=CCC2(CN3C=C(C(F)(F)F)C=C(OC(F)F)C3=N2)c2ccc(Br)c(F)c21` (stereo not shown) [Example 11, 6′-Bromo-8-difluoromethoxy-4′,5′-difluoro-6-trifluoromethyl-2′H,3H-spiro[imidazo[1,2-a]pyridine-2,1′-naphthalene]] came in with a concentration for half-maximal inhibition (IC50) of 12.2 nM.
`Fc1c(Br)ccc2c1C(Cl)=CCC21CN2C=C(C(F)(F)F)C=C(OC(F)F)C2=N1` (stereo not shown) [Example 14, 6′-Bromo-4′-chloro-8-difluoromethoxy-5′-fluoro-6-trifluoromethyl-2′H,3H-spiro[imidazo[1,2-a]pyridine-2,1′-naphthalene]] came in with a 50% inhibitory concentration (IC50) of 4.12 nM.
`Cc1nccc2c1C=CCC21CN2C=C(C(F)(F)F)C=C(OC(F)F)C2=N1` (stereo not shown) [Example 17, 8-Difluoromethoxy-1′-methyl-6-trifluoromethyl-3H,6′H-spiro[imidazo[1,2-a]pyridine-2,5′-isoquinoline]] came in with an IC50 of 705 nM.
`FC(F)OC1=CC(C(F)(F)F)=CN2CC3(CC=C(Cl)c4c3ccnc4Cl)N=C12` (stereo not shown) [Example 7, 1′,8′-Dichloro-8-difluoromethoxy-6-trifluoromethyl-3H,6′H-spiro[imidazo[1,2-a]pyridine-2,5′-isoquinoline]] gave an IC50 of 24.4 nM.
For `FC(F)OC1=CC(C(F)(F)F)=CN2C[C@@]3(CC=Cc4c3ccnc4Cl)N=C12` (single isomer, unassigned) [Example 2-B] the value was 18.7 nM; for `FC1=Cc2c(ccnc2Cl)[C@@]2(C1)CN1C=C(C(F)(F)F)C=C(OC(F)F)C1=N2` (single isomer, unassigned) [Example 10-B], 26.9 nM.
The compound `Cc1ccc2c(c1F)C=CCC21CN2C=C(C(F)(F)F)C=C(OC(F)F)C2=N1` (stereo not shown) [Example 18, 8-Difluoromethoxy-5′-fluoro-6′-methyl-6-trifluoromethyl-2′H,3H-spiro[imidazo[1,2-a]pyridine-2,1′-naphthalene]] showed a 50% inhibitory concentration (IC50) of 3.48 nM.
To `Fc1c(Br)ccc2c1C(I)=CCC21CN2C=C(C(F)(F)F)C=C(OC(F)F)C2=N1` (stereo not shown) [Example 13, 6′-Bromo-8-difluoromethoxy-5′-fluoro-4′-iodo-6-trifluoromethyl-2′H,3H-spiro[imidazo[1,2-a]pyridine-2,1′-naphthalene]] belongs 116 nM; to `CC1=CCC2(CN3C=C(C(F)(F)F)C=C(OC(F)F)C3=N2)c2ccnc(Cl)c21` (stereo not shown) [Example 6, 1′-Chloro-8-difluoromethoxy-8′-methyl-6-trifluoromethyl-3H,6′H-spiro[imidazo[1,2-a]pyridine-2,5′-isoquinoline]], 181 nM; to `FC1=CC[C@@]2(CN3C=C(C(F)(F)F)C=C(OC(F)F)C3=N2)c2cccc(F)c21` (single isomer, unassigned) [Example 15-A], 2.12 nM.
To `FC1=CC[C@]2(CN3C=C(C(F)(F)F)C=C(OC(F)F)C3=N2)c2ccnc(Cl)c21` (single isomer, unassigned) [Example 1-B] belongs 563 nM; to `O=[N+]([O-])c1c(Nc2cc(F)cc(Cl)c2)ccc2nonc12` [positive control compound, reference compound], 497 nM.

As usually defined, the IC50 is the concentration at which inhibition is half-maximal. Low values mean greater potency in that assay, high ones weaker potency in that assay.
